The target in test [1] is T1, malate-quinone oxidoreductase (PfMQO) (Plasmodium falciparum, UniProt C6KT09).
T1 construct: gene PF3D7_0616800; native full-length PfMQO from codon-optimized cDNA, expressed in ΔMdh1 yeast mitochondria
T1 sequence (C6KT09 1-521): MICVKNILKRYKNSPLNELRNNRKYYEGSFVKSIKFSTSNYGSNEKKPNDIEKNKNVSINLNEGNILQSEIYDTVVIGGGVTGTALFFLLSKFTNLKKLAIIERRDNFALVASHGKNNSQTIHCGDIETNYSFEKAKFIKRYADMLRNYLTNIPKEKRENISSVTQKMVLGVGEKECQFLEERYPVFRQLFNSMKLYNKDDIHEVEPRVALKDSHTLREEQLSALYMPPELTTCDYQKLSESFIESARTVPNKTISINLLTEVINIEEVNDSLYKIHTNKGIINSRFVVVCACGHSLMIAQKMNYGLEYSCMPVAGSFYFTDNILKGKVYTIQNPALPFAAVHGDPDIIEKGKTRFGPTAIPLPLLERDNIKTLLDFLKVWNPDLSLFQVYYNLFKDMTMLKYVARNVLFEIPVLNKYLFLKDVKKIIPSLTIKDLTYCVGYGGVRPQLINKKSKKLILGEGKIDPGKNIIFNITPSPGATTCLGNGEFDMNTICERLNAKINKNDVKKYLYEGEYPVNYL
In words: malate:dUQ/DCIP reductase activity in mitochondrial fraction of PfMQO-expressing yeast, with ΔMdh1 as negative control. The class given is biochemical.

The target of test [2] is T2, yeast succinate dehydrogenase (Saccharomyces cerevisiae, UniProt P21801+P33421+P37298+Q00711).
T2 construct: gene SDH1
T2 sequence (Q00711 29-640): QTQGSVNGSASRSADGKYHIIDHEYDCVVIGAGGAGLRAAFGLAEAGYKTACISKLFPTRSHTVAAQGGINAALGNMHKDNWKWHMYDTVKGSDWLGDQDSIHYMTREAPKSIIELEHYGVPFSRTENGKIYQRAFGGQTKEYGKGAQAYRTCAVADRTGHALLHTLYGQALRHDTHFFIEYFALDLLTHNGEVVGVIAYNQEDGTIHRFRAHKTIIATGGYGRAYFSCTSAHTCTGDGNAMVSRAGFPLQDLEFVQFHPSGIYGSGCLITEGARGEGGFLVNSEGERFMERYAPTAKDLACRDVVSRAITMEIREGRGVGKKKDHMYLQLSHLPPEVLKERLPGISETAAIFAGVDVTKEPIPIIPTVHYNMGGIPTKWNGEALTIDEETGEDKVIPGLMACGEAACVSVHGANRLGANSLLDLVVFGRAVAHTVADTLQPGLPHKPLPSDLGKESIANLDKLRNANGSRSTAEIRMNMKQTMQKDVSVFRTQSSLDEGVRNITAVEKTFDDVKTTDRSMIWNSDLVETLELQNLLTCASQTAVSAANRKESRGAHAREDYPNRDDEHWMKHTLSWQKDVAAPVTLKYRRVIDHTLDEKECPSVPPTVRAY
T2 sequence (P21801 21-266): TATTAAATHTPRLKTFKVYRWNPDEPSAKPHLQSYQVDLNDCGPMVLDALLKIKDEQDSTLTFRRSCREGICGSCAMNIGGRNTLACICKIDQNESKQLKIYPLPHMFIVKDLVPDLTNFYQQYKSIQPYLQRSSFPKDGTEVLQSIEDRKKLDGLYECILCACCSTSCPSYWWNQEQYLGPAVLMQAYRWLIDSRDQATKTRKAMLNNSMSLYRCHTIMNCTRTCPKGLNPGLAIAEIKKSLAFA
T2 sequence (P33421 51-198): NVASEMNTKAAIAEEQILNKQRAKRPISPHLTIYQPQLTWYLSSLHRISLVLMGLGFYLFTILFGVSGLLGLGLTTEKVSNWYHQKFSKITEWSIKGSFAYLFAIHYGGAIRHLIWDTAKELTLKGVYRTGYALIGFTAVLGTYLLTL
T2 sequence (P37298 32-181): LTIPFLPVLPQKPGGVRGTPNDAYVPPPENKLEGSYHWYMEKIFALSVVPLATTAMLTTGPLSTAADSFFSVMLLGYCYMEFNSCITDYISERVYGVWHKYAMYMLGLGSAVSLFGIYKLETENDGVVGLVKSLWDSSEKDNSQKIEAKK
In words: inhibition of yeast succinate dehydrogenase activity (Fig. S2). The test is classed as cell-based.

The structures appear in SMILES notation.

The source of these data is PMC10269487, “Plasmodium Parasite Malate-Quinone Oxidoreductase Functionally Complements a Yeast Deletion Mutant of Mitochondrial Malate Dehydrogenase” (Microbiology Spectrum, 2023).

Take `CC(C)=CCC/C(C)=C/CC/C(C)=C/Cc1c(O)c2ccccc2oc1=O` [ferulenol]: in test [1], the “malate:dUQ/DCIP reductase activity in mitochondrial fraction of PfMQO-expressing” value was “almost completely suppressed by 1”. Besides, in test [2], the IC50 was roughly 100 nM.

What is called IC50 is the point on the concentration scale where inhibition reaches its midpoint. Low values mean greater potency, high ones weaker potency.
